Experimental data published in patent publication US20230257444A1, “FUSION PROTEIN AND COMBINATIONS THEREOF” (Agency for Science, Technology and Research, priority 2020, published 2023).

Key:
SC5314 Candida albicans = test: In vitro combination therapy checkerboard dilution assay (Amphotericin B & hDectin1-Fc) with human primary macrophages; format: cell-based; settings: 24 hours, 37° C.
Procedure: Human peripheral blood CD14+ monocytes were cultured at 1×10^6 cells/mL in 5 mL of ImmunoCult™-SF Macrophage Differentiation Medium with Human Recombinant M-CSF at 50 ng/ml in a T-25 flask at 37° C. in a 5% CO2 incubator. On Day 4, 2.5 mL of fresh ImmunoCult™-SF Macrophage Differentiation Medium was added to the flask. On Day 6, M1 activation was initiated with the addition of 50 ng/mL IFN-γ. On Day 8, the macrophages were treated with ACCUTASE and scrapped from the flask. The cells were centrifuged and resuspended in RPMI medium with 10% FBS and seeded into 96 well plates at 10^5 cells/well. The co-culture assay involves the addition of 10^5 cells/well of SC5314 Candida albicans cells to wells containing 10^5 cells/well of human primary macrophages cells with final concentration of hDectin1-Fc at 0, 1, 10 or 100 g/ml and varying concentration of Amphotericin B in a checkerboard dilution assay format in a 96 well plate. The assay was incubated for 24 hr at 37° C. in a 5% CO2 atmosphere incubator and the MIC and MFC determined visual using a Nikon Eclipse Ti-E inverted microscope.
10′ Candida albicans cells and 10′ human primary macropahges were seeded per well in a checkerboard dilution assay of Amphotericin B with the respective concentration of hDectin1-Fc (0, 10, 100 μg/ml) and incubated for 24 hours at 37° C.

Candida albicans = test: Minimum inhibitory concentration assay (CLSI reference method); format: cell-based; settings: 37° C.
Text: Linker conjugation site and its length can affect the activity of drug in the way it is able to interact with its target as a result of a change in preferred conformation. Amphotericin B has two possible sites of conjugation: the carboxylic acid on the macrocyclic ring (C-linked) and the amine on the sugar (N-linked). To investigate how conjugation to each of these sites affects the activity of Amphotericin B, polyethylene glycol (PEG) linkers of three different repeat units were attached to them (FIG. 20) and their MIC of Candida albicans evaluated against the unconjugated free Amphotericin B.
The MIC assay of the N-linked and C-linked PEG conjugated Amphotericin B was conducted for 3 different PEG lengths of 4, 12 and 24 repeat units versus unconjugated Amphotericin B (Table 3). The PEG conjugated Amphotericin B and free Amphotericin B were diluted and incubated at 37° C. for 24 hrs with […] Candida albicans cells/well according to the CLSI reference method for antifungal susceptibility testing of yeasts.

SMILES: C[C@@H]1[C@H](O)[C@@H](C)/C=C/C=C/C=C/C=C/C=C/C=C/C=C/[C@H](O[C@@H]2O[C@H](C)[C@@H](O)[C@H](N)[C@@H]2O)C[C@@H]2O[C@](O)(C[C@@H](O)C[C@@H](O)[C@H](O)CC[C@@H](O)C[C@@H](O)CC(=O)O[C@H]1C)C[C@H](O)[C@H]2C(=O)O [Amphotericin B]
- basal MFC of Amphotericin B (SC5314 Candida albicans; absence of hDectin1-Fc): 0.11 µM
- MFC of Amphotericin B (SC5314 Candida albicans; hDectin1-Fc concentration of 100 µg/ml): 0.06 µM
- 24hr MIC (Candida albicans): 0.75 μm
